Experimental data from patent US20190352297A1, “SELECTIVE AURORA A KINASE INHIBITORS” (UNIVERSITAT BERN, priority 2017, published 2019).
One block for each compound: values may come before it.

How the values were obtained:
Aurora A kinase domain = target: T1, Aurora A kinase domain (Homo sapiens, UniProt O14965); experiment: HTRF kinase assay, Aurora A; format: biochemical
T1 construct: human Aurora A kinase domain (residues 122-403 in the pET24-d vector); His-tag (cleaved yes); made in house; host or cells: E. coli BL21 (DE3) Rosetta
T1 sequence (O14965 122-403): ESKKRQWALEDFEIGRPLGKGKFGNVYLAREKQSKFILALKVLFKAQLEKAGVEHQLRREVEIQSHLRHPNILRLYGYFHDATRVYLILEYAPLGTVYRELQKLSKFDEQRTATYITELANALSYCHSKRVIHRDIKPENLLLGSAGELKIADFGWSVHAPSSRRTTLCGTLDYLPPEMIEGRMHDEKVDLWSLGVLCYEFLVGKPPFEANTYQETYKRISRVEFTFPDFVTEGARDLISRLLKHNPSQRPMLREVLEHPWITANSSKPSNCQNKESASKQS
Description: The clone of human Aurora A kinase domain (residues 122-403 in the pET24-d vector) was kindly provided by the Montoya laboratory (University of Copenhagen). The construct was transformed into E. coli BL21 (DE3) Rosetta cells and protein expression was induced with 0.5 mM IPTG at 20° C. for 12 hours. The cells were harvested at 6,000×g for 25 min at 4° C. and resuspended in lysis buffer (50 mM Tris-HCl, 500 mM NaCl, 1 mM PMSF, pH=8.0). Disruption of the cells was performed by sonication cooled on ice, after which the debris were removed by centrifugation at 110,000×g for 30 min at 4° C. Aurora A was purified by affinity chromatography using NiNTA resin from Qiagen following the manufacturer's instructions. After loading, the resin was washed with lysis buffer, followed by a second wash with 6% elution buffer (50 mM Tris-HCl, 500 mM NaCl, 500 mM imidazole, pH=8.0). Protein was eluted with 100% elution buffer. The eluate was exchanged into final buffer (20 mM Tris-HCl, 200 mM NaCl, 0.5 mM EDTA, 2 mM DTT, pH=8.0) using a HiPrep 26/10 desalting column (GE Healthcare). The His-tag was cleaved with TEV protease at 4° C. overnight. […] Protein concentration was determined by UV absorbance. […]
Aurora A and AuroraB kinases were assayed using the homogeneous time-resolved fluorescence (HTRF) KinEASE STK2 kit from Cisbio (France). […] After incubation at room temperature for one hour, fluorescence was measured at 620 nm (europium cryptate) and 665 nm (XL-665) after excitation at 317 nm (lag time 60 μs, integration time 500 μs) using a Tecan Infinite M1000 PRO microplate reader (Greiner 384-well plates, white, non-binding, small volume). The ratio of fluorescence (665 nm/620 nm) was calculated for each well and the results were expressed as follows: specific signal=ratio (sample)−ratio (negative control), where ratio=665 nm/620 nm×10^4. Compounds were measured in threefold serial dilutions at 10 different concentrations, covering the concentration range from no to full inhibition. Each concentration was measured in duplicates, and two independent determinations were made for each IC50 value. […]

pThr288 Aurora A = experiment: Phosphorylation of Aurora A Thr288 in cells; format: cell-based, human
Description: (§1) HeLa Kyoto cells were cultured in high-glucose DMEM with GlutaMAX (Life Technologies) media supplemented with 10% fetal calf serum (FCS) in a humidified 5% CO2 incubator at 37° C. For plasmid transfections, cells were seeded at 80-90% confluence. 4 μg of plasmid DNA in 100 μl OptiMEM and 4 μl of Lipofectamine 2000 (Life Technologies) in 100 μl OptiMEM were incubated in parallel for 5 minutes, mixed for 20 minutes and added to each well. All Aurora A clones were constructed using full-length Aurora A as a template with appropriate PCR primer pairs. […] GFP-Aurora AR137A and GFP-Aurora AW277A were engineered using a site directed mutagenesis kit (Agilent Technologies, no. 210515) with appropriate primers. For determining the mitotic index and the chromosome misalignment phenotype, cells were incubated with various concentrations of compounds for 20 h before analysis. Cells were likewise treated with 0.25 μM MLN8237 (Selleckchem, no. S1133) or 5 μM ZM447439 (Selleckchem, no. S1103). For flow cytometry analysis, 50 nM […] and 2.5 μM ZM447439 were used. For rescue experiments, HeLa Kyoto cells were first transfected with GFP-Aurora A, GFP-Aurora AR137A or GFP-Aurora AW277A for 20 h, followed by incubation with 9 for another 20 h before cells were fixed with cold methanol and stained. To assess the impact of compound 9 on cell cycle progression, DNA content was analyzed after propidium iodide staining using FACS (BD Accuri C6 flow cytometer).
For immunofluorescence, cells were fixed in cold methanol, washed in PBT (PBS supplemented with 0.05% Tween-20) and stained with the following primary antibodies: 1:200 rabbit anti-pT288 (Cell Signaling, C39D8), 1:200 rabbit anti-pH3S10 (Cell Signaling, D2C8), 1:500 mouse anti-α-tubulin (Transduction Laboratories, 612709), 1:300 mouse anti-GFP (MAB3580, Millipore), 1:200 anti-TPX2 (Santa Cruz Biotechnology, sc-32863), anti-Aurora A (Invitrogen, 458900). Secondary antibodies were anti-mouse conjugated to Alexa488 or Alexa568, as well as anti-rabbit conjugated to Alexa488 or Alexa568, all used at 1:500 (Invitrogen). […]

Aurora A (pT288) = conditions: read-out: cellular IC50 (pT288) (reported); cited from earlier work
Aurora B (pH3) = conditions: pH 3; read-out: cellular IC50 (pH3) (reported); cited from earlier work
HeLa Kyoto cells [1] = experiment: Chromosome misalignment during metaphase; format: cell-based, human; conditions: HeLa Kyoto cells, 0.25 μM
Description: as §1
(§2) For immunofluorescence, cells were fixed in cold methanol, washed in PBT (PBS supplemented with 0.05% Tween-20) and stained with the following primary antibodies: 1:200 rabbit anti-pT288 (Cell Signaling, C39D8), 1:200 rabbit anti-pH3S10 (Cell Signaling, D2C8), 1:500 mouse anti-α-tubulin (Transduction Laboratories, 612709), 1:300 mouse anti-GFP (MAB3580, Millipore), 1:200 anti-TPX2 (Santa Cruz Biotechnology, sc-32863), anti-Aurora A (Invitrogen, 458900). Secondary antibodies were anti-mouse conjugated to Alexa488 or Alexa568, as well as anti-rabbit conjugated to Alexa488 or Alexa568, all used at 1:500 (Invitrogen). Confocal images were acquired on a Zeiss LSM 710 confocal microscope equipped with a Axiocam MRm (B/VVW) CCD camera using a 63×NA 1.0 oil objective and processed in ImageJ and Adobe Photoshop, maintaining relative image intensities within a series.

[2] = tested on: Aurora A localization, HeLa Kyoto cells; experiment: Aurora A localization at the mitotic spindle (immunofluorescence); format: cell-based, human; conditions: overnight
Description: as §1
Secondary antibodies were anti-mouse conjugated to Alexa488 or Alexa568, as well as anti-rabbit conjugated to Alexa488 or Alexa568, all used at 1:500 (Invitrogen). Confocal images were acquired on a Zeiss LSM 710 confocal microscope equipped with a Axiocam MRm (B/VVW) CCD camera using a 63×NA 1.0 oil objective and processed in ImageJ and Adobe Photoshop, maintaining relative image intensities within a series.

Aurora A (Trp277) = target: T2, Aurora A (Trp277) (Homo sapiens, UniProt O14965); experiment: Intrinsic tryptophan fluorescence; format: binding
T2 construct: human Aurora A kinase domain (residues 122-403 in the pET24-d vector); His-tag (cleaved yes); made in house; host or cells: E. coli BL21 (DE3) Rosetta
T2 sequence (O14965 122-403): T1 sequence (O14965 122-403)
Description: Binding experiments were performed by mixing Aurora A (500 nM, 375 nM, and 150 nM for 77, 9, and 88, respectively) with varying concentrations (0-100 μM) of the different compounds in buffer (final DMSO concentration 1%), followed by incubation for 15 min at room temperature. Tryptophan fluorescence spectra were recorded at room temperature using an Infinite M1000 Pro plate reader (Tecan) and Corning 96 well half area, flat bottom, non-binding surface, black polystyrene plates. Excitation occurred at 284 nm (bandwidth ±5 nm) and emission at 340 nm (bandwidth ±10 nm). The gain was calculated from the well with the highest protein concentration. Each measurement was done in triplicate.

HeLa Kyoto cells [3] = experiment: DNA content analysis by flow cytometry; format: cell-based, human; conditions: 48 h, 9 even at 10 μM
Description: as §1, with “For rescue experiments, HeLa Kyoto cells were first transfected with GFP-Aurora A, GFP-Aurora AR137A or GFP-Aurora AW277A for 20 h, followed by incubation with 9 for another 20 h before cells were fixed with cold methanol and stained.” left out

[4] = tested on: phospho-Histone H3 Ser10 (Aurora B); experiment: Phospho-Histone H3 Ser10 in cells (Aurora B activity); format: cell-based, human; conditions: treated cells
Description: as §1, §2

fold less active than precursor 79 (Aurora A kinase domain; Aurora A inhibition relative to 79): 7 fold
SMILES: CCc1ccc(N=C2SC(Cc3ccnc(N)c3)C(=O)N2C)cc1 (racemic) [rac-91]

IC50 (Aurora A kinase domain; free Aurora A, 20 μM ATP, HTRF, read-out: IC50 Aurora A (biochemical)): 0.024 µM
SMILES: CCc1ccc(N=C2SC(Cc3ccnc(Nc4ccc(C(=O)O)cn4)c3)C(=O)N2C)cc1 (racemic) [rac-92]
activity in cells (pThr288 Aurora A): did not show any activity
cellular pThr288 Aurora-A levels (pThr288 Aurora A; overnight incubation): does not reduce pThr288 levels

SMILES: COc1cc(Nc2ncc3c(n2)-c2ccc(Cl)cc2C(c2c(F)cccc2OC)=NC3)ccc1C(=O)O [Compound 1, Alisertib, reference compound]
misaligned chromosomes (HeLa Kyoto cells [1]): ~100%
Aurora A localization at spindle microtubules and centrosomes [2]: present at centrosomes but not on spindle microtubules
Aurora A localization at spindle microtubules and centrosomes ([2]; listed as alisertib): notably displaced from the spindle microtubules

tryptophan fluorescence, environment of Trp277 (Aurora A (Trp277)): perturbed the environment of Trp277
SMILES: CCc1ccc(N=C2SC(=Cc3ccncc3)C(=O)N2CCOC)cc1 [Compound 77]

SMILES: CCc1ccc(N=C2SC(=Cc3ccnc(Nc4ccc(-c5nn[nH]n5)cc4)c3)C(=O)N2C)cc1 [Compound 88]
tryptophan fluorescence, environment of Trp277 (Aurora A (Trp277)): perturbed the environment of Trp277

SMILES: COc1cc2c(Nc3ccc(NC(=O)c4ccccc4)cc3)ncnc2cc1OCCCN1CCOCC1 [Compound 94, ZM447439, reference compound]
accumulation of cells with 8N and 16N DNA contents (HeLa Kyoto cells [3]): massive accumulation
distribution of phospho-Histone H3 Ser10 [4]: absent

SMILES: O=C(O)[C@]1(Cc2cccc(Nc3nccs3)n2)CC[C@@H](Oc2cccc(Cl)c2F)CC1 [MK-5108]
IC50 (Aurora B (pH3)): > 10 µM
